Data taken from ChEMBL document CHEMBL3132777, “Novel proteinprotein interaction inhibitor of Nrf2Keap1 discovered by structure-based virtual screening” (Medchemcomm, 2014).
pEC50: −log10 of the molar value. Active and inactive are the calls of the source. The calls are words filed in the database; no cut-off is given here.

What was measured:
[1] = test system: HepG2; test: Cytotoxicity against human HepG2-ARE-C8 cells at 200 uM; format: cell-based; settings: hepg2, 200 µM
[2] = test system: HepG2; test: Induction of Nrf2 transcription activity in human HepG2-ARE-C8 cells assessed as ARE gene expression after 12 to 24 hrs by cell-based luciferase reporter assay; format: functional
[3] = test system: HepG2; test: Induction of Nrf2 transcription activity in human HepG2-ARE-C8 cells assessed as increase in ARE gene expression at 200 uM by cell-based luciferase reporter assay relative to untreated control; format: functional
[4] = molecular target: Kelch-like ECH-associated protein 1 (Homo sapiens, UniProt Q14145); test: Inhibition of FITC-9mer Nrf2 peptide amide/Keap1 Kelch domain (unknown origin) interaction after 30 mins by fluorescence polarization assay
[5] = test system: HepG2; test: Induction of Nrf2 transcription activity in human HepG2-ARE-C8 cells assessed as ARE gene expression at 20 to 100 uM after 24 hrs by cell-based luciferase reporter assay; format: functional
[6] = test system: HepG2; test: Induction of Nrf2 transcription activity in human HepG2-ARE-C8 cells assessed as ARE gene expression at 20 to 100 uM after 12 hrs by cell-based luciferase reporter assay; format: functional

Sequence of Kelch-like ECH-associated protein 1 (Q14145 whole entry, the tested form may be a part): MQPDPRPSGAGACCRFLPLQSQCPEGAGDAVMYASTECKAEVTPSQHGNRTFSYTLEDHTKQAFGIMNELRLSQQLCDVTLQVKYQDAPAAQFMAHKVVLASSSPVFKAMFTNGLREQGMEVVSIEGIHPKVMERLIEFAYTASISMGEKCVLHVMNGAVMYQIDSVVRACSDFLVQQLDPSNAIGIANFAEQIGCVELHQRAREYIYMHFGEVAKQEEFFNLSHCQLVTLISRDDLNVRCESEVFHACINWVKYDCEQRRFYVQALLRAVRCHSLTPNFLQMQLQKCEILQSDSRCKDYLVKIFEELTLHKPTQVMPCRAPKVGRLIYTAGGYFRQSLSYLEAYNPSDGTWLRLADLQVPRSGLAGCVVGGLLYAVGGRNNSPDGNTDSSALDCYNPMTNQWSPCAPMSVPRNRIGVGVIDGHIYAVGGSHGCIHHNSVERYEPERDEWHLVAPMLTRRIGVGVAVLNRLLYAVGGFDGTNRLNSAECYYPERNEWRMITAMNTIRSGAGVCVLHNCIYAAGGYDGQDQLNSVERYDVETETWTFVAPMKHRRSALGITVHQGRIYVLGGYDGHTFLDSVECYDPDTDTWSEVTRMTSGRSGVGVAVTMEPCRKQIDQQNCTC

SMILES	Activity [1]	Activity [2]	fold change (FC) [3]	pEC50 [4]	Activity [5]	Activity [6]
O=C(N/N=C/c1ccc(-c2ccc(C(=O)O)cc2)o1)N/N=C/c1ccc(-c2ccc(C(=O)O)cc2)o1	Non-toxic	Dose-dependent effect	10	5.01	–	–
CC(C)(C)c1cc(O)ccc1O	–	–	–	–	inactive	Active
